Data reported in article PMC9143221 (Pharmaceuticals, 2022).
≈ marks a conversion by molar mass, not a printed value. Where two headings read alike, the source gives them in different places. Bridge positions count the residues as written; N and C are the ends. Square brackets hold non-standard residues; d marks the D form. Ends that are not written are not given here. Peptide text beside a SMILES is read from it.

Columns and labels:
[1] = tested on: Vero cells (ATCC, CCL-81)
[2] = tested on: SARS-CoV-2 WI; conditions: 2 h
[3] = tested on: Pseudomonas aeruginosa #2
[4] = tested on: pseudo-EBOV (VSV-eGP); assay type: cell-based, Ebola virus
[5] = tested on: pseudo-EBOV (VSV-eGP)
[6] = tested on: Klebsiella pneumoniae E406-17
[7] = tested on: all the tested antibiotic-resistant pathogens (e.g., MRSA, Escherichia coli, Pseudomonas aeruginosa, and Klebsiella pneumoniae)
[8] = tested on: Escherichia coli E416-7
[9] = tested on: Staphylococcus epidermidis 1457
[10] = tested on: Acinetobacter baumannii B28-16
[11] = tested on: S. aureus USA300
[12] = tested on: Calu-3 (ATCC, HTB-55) cells; conditions: 48 h
[13] = tested on: human red blood cells; conditions: red cells of human
[14] = tested on: HaCaT cells (human keratinocytes)
[15] = tested on: BALB/c mouse red blood cells

## CC(C)C[C@@H](NC(=O)CN)C(=O)N[C@H](CCCNC(=N)N)C(=O)N[C@@H]1CSSC[C@H](C(=O)N[C@H](CC(C)C)C(=O)N[C@H](CC(C)C)C(=O)N[C@H](CCCNC(=N)N)C(=O)O)NC(=O)[C@@H](CCCNC(=N)N)NC(=O)CNC(=O)[C@@H](CC(C)C)NC(=O)[C@@H](CCCNC(=N)N)NC(=O)[C@@H](CCCNC(=N)N)NC(=O)[C@@H](CC(C)C)NC(=O)[C@@H](CC(C)C)NC(=O)[C@@H](CCCNC(=N)N)NC(=O)CNC(=O)[C@@H](CC(C)C)NC(=O)[C@@H](CCCNC(=N)N)NC1=O [DDIP1] (H-G[dL][dR][dC][dR][dL]G[dR][dL][dL][dR][dR][dL]G[dR][dC][dL][dL][dR]-OH; disulfide 4-16; N-terminus assumed)
[1]
  Vero Cell TC50: 13.0 µM
[2]; 5 µM
  inhibition of SARS-CoV-2: 42%
[2]; 10 µM
  inhibition of SARS-CoV-2: ~ 55%
[3]
  Minimum inhibitory concentration, Pseudomonas aeruginosa #2: 4 µM (≈ 9.12 µg/mL)
[4]
  inhibition of VSV-eGP, treated immediately after infection: ~ 15%
[5]; 2 h, 2.5 µM
  inhibition against the virus (VSV-eGP): 7%
[5]; 2 h, 5 µM
  inhibition against the virus (VSV-eGP): 14%
[6]
  Minimum inhibitory concentration, Klebsiella pneumoniae E406-17: 4 µM (≈ 9.12 µg/mL)
[7]
  MIC values against all the tested antibiotic-resistant pathogens: 2 to 8 µM
[8]
  Minimum inhibitory concentration, Escherichia coli E416-7: 2 µM (≈ 4.56 µg/mL)
[9]
  Minimum inhibitory concentration, Staphylococcus epidermidis 1457: 4 to 8 µM
[10]
  Minimum inhibitory concentration, Acinetobacter baumannii B28-16: 2 to 4 µM
[11]
  Minimum inhibitory concentration, S. aureus USA300: 4 µM (≈ 9.12 µg/mL)

## CC[C@H](C)[C@H](NC(=O)[C@H](CCCCN)NC(=O)[C@H](CCC(=O)O)NC(=O)[C@H](CCCCN)NC(=O)[C@H](CO)NC(=O)[C@H](CCCCN)NC(=O)[C@H](CCCNC(=N)N)NC(=O)[C@H](Cc1ccccc1)NC(=O)[C@H](Cc1ccccc1)NC(=O)[C@H](CC(=O)O)NC(=O)CNC(=O)[C@H](CC(C)C)NC(=O)[C@@H](N)CC(C)C)C(=O)NCC(=O)N[C@@H](CCCCN)C(=O)N[C@@H](CCC(=O)O)C(=O)N[C@@H](Cc1ccccc1)C(=O)N[C@@H](CCCCN)C(=O)N[C@@H](CCCNC(=N)N)C(=O)N[C@H](C(=O)N[C@H](C(=O)N[C@@H](CCC(N)=O)C(=O)N[C@@H](CCCNC(=N)N)C(=O)N[C@H](C(=O)N[C@@H](CCCCN)C(=O)N[C@@H](CC(=O)O)C(=O)N[C@@H](Cc1ccccc1)C(=O)N[C@@H](CC(C)C)C(=O)N[C@@H](CCCNC(=N)N)C(=O)N[C@@H](CC(N)=O)C(=O)N[C@@H](CC(C)C)C(=O)N[C@H](C(=O)N1CCC[C@H]1C(=O)N[C@@H](CCCNC(=N)N)C(=O)N[C@H](C(=O)N[C@@H](CCC(=O)O)C(=O)N[C@@H](CO)C(=O)O)[C@@H](C)O)C(C)C)[C@@H](C)CC)C(C)C)[C@@H](C)CC [LL-37, reference compound]
[2]; 5 µM
  inhibition of SARS-CoV-2: 18%
[2]; 10 µM
  inhibition of SARS-CoV-2: ~ 27%
[4]
  inhibition of VSV-eGP, treated immediately after infection: 9%
[5]
  inhibition of VSV-eGP (in words): higher viral inhibition than DDIP1
[12]
  Calu3 Cell TC50: 19.1 µM

## RWLRGLLSGLLR-NH2 [DFTavP3]
[3]
  Minimum inhibitory concentration, Pseudomonas aeruginosa #2: 4 to 8 µM
[6]
  Minimum inhibitory concentration, Klebsiella pneumoniae E406-17: 8 µM
[8]
  Minimum inhibitory concentration, Escherichia coli E416-7: 2 to 4 µM
[9]
  Minimum inhibitory concentration, Staphylococcus epidermidis 1457: 8 µM
[13]
  hRBC HC50 (50% hemolytic concentration): 50 µM
[10]
  Minimum inhibitory concentration, Acinetobacter baumannii B28-16: 4 µM
[11]
  Minimum inhibitory concentration, S. aureus USA300: 4 µM

## RWLRGLLSGLLRRLLS-NH2 [DFTavP2]
[3]
  Minimum inhibitory concentration, Pseudomonas aeruginosa #2: 8 µM
[5]; 2 h, 5 µM
  decrease in the viral inhibition compared to DFTavP1: 33%
[6]
  Minimum inhibitory concentration, Klebsiella pneumoniae E406-17: 4 µM
[8]
  Minimum inhibitory concentration, Escherichia coli E416-7: 4 µM
[9]
  Minimum inhibitory concentration, Staphylococcus epidermidis 1457: 2 µM
[13]
  hRBC HC50 (50% hemolytic concentration): below 12.5 µM
[10]
  Minimum inhibitory concentration, Acinetobacter baumannii B28-16: 2 µM
[11]
  Minimum inhibitory concentration, S. aureus USA300: 4 µM

## RWLRGLLSGLLRRLLSGLLL-NH2 [DFTavP1]
[3]
  Minimum inhibitory concentration, Pseudomonas aeruginosa #2: 32 µM
[5]; 2 h, 2.5 µM
  higher inhibition than LL-37: 18%
[14]
  HaCaT TC50 (peptide concentration that killed 50% of human keratinocytes): 25 µM
[6]
  Minimum inhibitory concentration, Klebsiella pneumoniae E406-17: 16 to 32 µM
[15]
  hemolysis of murine red blood cells (in words): highly hemolytic
[15]; red cells of mouse
  mRBC HC50: <10 µM
[8]
  Minimum inhibitory concentration, Escherichia coli E416-7: 16 µM
[9]
  Minimum inhibitory concentration, Staphylococcus epidermidis 1457: 8 to 16 µM
[10]
  Minimum inhibitory concentration, Acinetobacter baumannii B28-16: 8 µM
[11]
  Minimum inhibitory concentration, S. aureus USA300: 8 to 16 µM

## RWVRGVVSGVVRRVVS-NH2 [DFTavP4]
[8]
  Minimum inhibitory concentration, Escherichia coli E416-7: 16 µM
[11]
  Minimum inhibitory concentration, S. aureus USA300: >64 µM
